For 2 compounds, Cured and MST results are on record in ChEMBL document CHEMBL1124085, “Flavins as potential antimalarials. 1. 10-(Halophenyl)-3-methylflavins” (1988).

Assay [1] has as its system Mus musculus. Put plainly: Parenteral antimalarial activity against Plasmodium vinckei in mice (Mus musculus) measured as % cured and increase in MST (days) at 10 mg/kg dose. In kind it is functional.
Assay [2] concerns Mus musculus. As to the kind of experiment: Oral antimalarial activity against Plasmodium vinckei in mice (Mus musculus) measured as increase in mean survival time at 25 mg/kg dose. It counts as functional.
Assay [3] relates to Mus musculus. As to the kind of experiment: Oral antimalarial activity against Plasmodium vinckei vinckei in mice (Mus musculus) measured as % cured and increase in MST (days) at 100 mg/kg dose. In kind it is functional.
For assay [4], the system named is Mus musculus. Put plainly: Parenteral antimalarial activity against Plasmodium vinckei in mice (Mus musculus) measured as % cured and increase in MST (days) at 25 mg/kg dose. In kind it is functional.
The subject of assay [5] is Mus musculus. As to the kind of experiment: Parenteral antimalarial activity against Plasmodium vinckei in mice (Mus musculus) measured as % cured and increase in MST (days) at 20 mg/kg dose. It counts as functional.
Assay [6] has as its system Mus musculus. Put plainly: Parenteral antimalarial activity against Plasmodium vinckei in mice (Mus musculus) measured as increase in mean survival time at 20 mg/kg dose; Toxic. It counts as functional.
In assay [7] the test system is Mus musculus. Put plainly: Oral antimalarial activity against Plasmodium vinckei in mice (Mus musculus) measured as % cured and increase in MST (days) at 75 mg/kg dose. It counts as functional.
Assay [8] deals with Mus musculus. As to the kind of experiment: Oral antimalarial activity against Plasmodium vinckei in mice (Mus musculus) measured as increase in mean survival time at 150 mg/kg dose. It counts as functional.
The test system of assay [9] is Mus musculus. As to the kind of experiment: Oral antimalarial activity against Plasmodium vinckei vinckei in mice (Mus musculus) measured as increase in mean survival time at 50 mg/kg dose. It counts as functional.
The subject of assay [10] is Mus musculus. Put plainly: Oral antimalarial activity against Plasmodium vinckei vinckei in mice (Mus musculus) measured as % cured and increase in MST (days) at 50 mg/kg dose. In kind it is functional.
Assay [11] relates to Mus musculus. Put plainly: Oral antimalarial activity against Plasmodium vinckei vinckei in mice (Mus musculus) measured as increase in mean survival time at 75 mg/kg dose. In kind it is functional.
Assay [12] concerns Mus musculus. Put plainly: Parenteral antimalarial activity against Plasmodium vinckei in mice (Mus musculus) measured as increase in mean survival time at 10 mg/kg dose. In kind it is functional.
For assay [13], the system named is Mus musculus. Put plainly: Oral antimalarial activity against Plasmodium vinckei in mice (Mus musculus) measured as increase in mean survival time at 100 mg/kg dose. In kind it is functional.
The test system of assay [14] is Mus musculus. As to the kind of experiment: Oral antimalarial activity against Plasmodium vinckei in mice (Mus musculus) measured as % cured and increase in MST (days) at 25 mg/kg dose. In kind it is functional.
Assay [15] deals with Mus musculus. As to the kind of experiment: Parenteral antimalarial activity against Plasmodium vinckei vinckei in mice (Mus musculus) measured as % cured and increase in MST (days) at 15 mg/kg dose. It counts as functional.
In assay [16] the test system is Mus musculus. Put plainly: Oral antimalarial activity against Plasmodium vinckei vinckei in mice (Mus musculus) measured as % cured and increase in MST (days) at 150 mg/kg dose. In kind it is functional.
For assay [17], the system named is Mus musculus. As to the kind of experiment: Parenteral antimalarial activity against Plasmodium vinckei in mice (Mus musculus) measured as increase in mean survival time at 15 mg/kg dose. In kind it is functional.
In assay [18] the test system is Mus musculus. As to the kind of experiment: Parenteral antimalarial activity against Plasmodium vinckei in mice (Mus musculus) measured as increase in mean survival time at 25 mg/kg dose; Toxic. It counts as functional.
The test system of assay [19] is Mus musculus. As to the kind of experiment: Parenteral antimalarial activity against Plasmodium vinckei vinckei in mice (Mus musculus) measured as % cured and increase in MST (days) at 25 mg/kg dose. In kind it is functional.
Assay [20] relates to Mus musculus. Put plainly: Oral antimalarial activity against Plasmodium vinckei in mice (Mus musculus) measured as % cured and increase in MST (days) at 25 mg/kg dose. In kind it is functional.
Assay [21] concerns Mus musculus. As to the kind of experiment: Oral antimalarial activity against Plasmodium vinckei vinckei in mice (Mus musculus) measured as % cured and increase in MST (days) at 150 mg/kg dose. In kind it is functional.
The test system of assay [22] is Mus musculus. As to the kind of experiment: Parenteral antimalarial activity against Plasmodium vinckei in mice (Mus musculus) measured as % cured and increase in MST (days) at 15 mg/kg dose. It counts as functional.
The subject of assay [23] is Mus musculus. Put plainly: Oral antimalarial activity against Plasmodium vinckei vinckei in mice (Mus musculus) measured as % cured and increase in MST (days) at 100 mg/kg dose. In kind it is functional.
The test system of assay [24] is Mus musculus. As to the kind of experiment: Parenteral antimalarial activity against Plasmodium vinckei vinckei in mice (Mus musculus) measured as % cured and increase in MST (days) at 10 mg/kg dose. It counts as functional.
For assay [25], the system named is Mus musculus. Put plainly: Parenteral antimalarial activity against Plasmodium vinckei in mice (Mus musculus) measured as % cured and increase in MST (days) at 30 mg/kg dose.
The test system of assay [26] is Mus musculus. Put plainly: Oral antimalarial activity against Plasmodium vinckei in mice (Mus musculus) measured as % cured and increase in MST (days) at 75 mg/kg dose. In kind it is functional.
Assay [27] deals with Mus musculus. As to the kind of experiment: Oral antimalarial activity against Plasmodium vinckei in mice (Mus musculus) measured as % cured and increase in MST (days) at 50 mg/kg dose. In kind it is functional.
Assay [28] relates to Mus musculus. Put plainly: Oral antimalarial activity against Plasmodium vinckei in mice (Mus musculus) measured as increase in mean survival time at 25 mg/kg dose. It counts as functional.
Assay [29] concerns Mus musculus. Put plainly: Parenteral antimalarial activity against Plasmodium vinckei vinckei in mice (Mus musculus) measured as % cured and increase in MST (days) at 20 mg/kg dose. In kind it is functional.

As to `Cn1c(=O)nc2n(-c3ccccc3Cl)c3ccccc3nc-2c1=O`, the Cured in [1], in [3], in assay [4], in [5], in [7] and in assay [10] was 0% each time. The Cured in assay [14], in assay [15] and in assay [16] was 0% each time. The MST in assay [2] was 0 days; in assay [6], -0.2 days; in [8], 0 days; in assay [9] it was 0 days; in assay [11] it was 0 days; in assay [12], 0 days. Moreover, the figures for the MST in [13], in assay [17] and in assay [18] were 0 days, 0 days and -1.4 days, respectively.

For `Cn1c(=O)nc2n(-c3cc(Cl)cc(Cl)c3)c3ccccc3nc-2c1=O`, the Cured in assay [19] amounted to 100%; in [20] it was 60%; in assay [21], 100%; in [22] it was 100%; in assay [23], 100%; in assay [24], 100%. Besides, the Cured in [25], in assay [26], in assay [27] and in assay [29] was 100% in each case. Further, in [28], the MST amounted to 3.5 days.
